One block for each compound: values may come before it.
Tests used:
cardiomyocytes [1] = settings: FPDc10 (10% prolongation of FPDc); ref Nozaki et al. 2017; cited from earlier work
cardiomyocytes [2] = settings: CTD90 ↑; ref Lu et al. 2019; cited from earlier work
hERG = settings: read-out: IC50 hERG; ref Busch et al. 1998; cited from earlier work
IKs = system: IKs; design: method as in Davies et al. 1996; settings: ref Davies et al. 1996; cited from earlier work
[3] = ref Lee et al. 2025; cited from earlier work
[4] = system: human iPSC-derived cardiomyocytes; test: PCA of beat parameters: cardiotoxicity risk and mechanism classification; assay type: cell-based
Procedure: Each parameter set was evaluated for its ability to separate cardiotoxic and non-cardiotoxic compounds while maintaining minimal variance among negative controls. […] To assess cardiotoxicity, PCA scores of test compounds were plotted in the PC space, and their positions were compared with the SD-defined zones of the negative control group. Risk levels were classified as follows: Low risk (within 1 SD), medium risk (between 1 and 2 SD), and high risk (beyond 2 SD). Dose-dependent cardiotoxicity potential was estimated based on displacement from the negative control cluster.
To establish a risk classification framework, the standard deviation (SD) range of negative control compounds in PCA space was used to define 3 zones: Within the SD range (low risk), between 1 and 2 SD (medium risk), and beyond 2 SD (high risk) (Fig. 6B). Risk levels derived from PCA distribution were compared with IC50 and Cmax values reported for each compound and associated ion channels (Table 5).

[5] = system: human iPSC-derived cardiomyocytes; test: Field potential imaging (FPI) with UHD-CMOS-MEA, acute drug treatment; assay type: cell-based
Procedure: Cryopreserved iCell Cardiomyocytes (FUJIFILM Cellular Dynamics, Inc.) were handled according to the supplier’s instructions. Cells were thawed in a 37 °C water bath for approximately 3 min and resuspended in iCell Thawing Medium to prepare a cell suspension at a final concentration of 1 × 10^7 cells/ml. A total of 10 µl of the cell suspension (100,000 cells per chip) was seeded directly onto the fibronectin-coated electrode area of each chip. Chips were incubated at 37 °C for 1 h to allow cell attachment, after which 1 ml of maintenance medium was gently added. […] Thereafter, medium exchanges were performed twice weekly by replacing half the medium volume.
Compounds were dissolved in culture medium containing 0.1% DMSO and administered cumulatively at increasing concentrations. Drug solutions were applied directly to the culture wells, and measurements were initiated 30 min after administration. […] All recordings were performed under spontaneous beating conditions, with no external pacing applied.
(§1) Recordings were performed at a sampling rate of 2 kHz, with a 2-min recording duration per condition. Data acquisition was controlled via proprietary software (Sony Semiconductor Solutions), and all raw signals were stored for offline analysis. All experiments were conducted in a humidified environment at 37 °C with 5% CO2, ensuring physiological conditions during both drug exposure and recording.
Spikes from hiPSC-derived cardiomyocytes were initially detected at each electrode using a voltage threshold of ±100 µV via BinViewer software (SCREEN Holdings Co., Ltd, Japan). The resulting spike data were then processed using a custom MATLAB (MathWorks, Natick, MA) script to perform beat detection. Firing count histograms were generated using a bin size of 0.5 ms, and peak detection within these histograms identified the timing and propagation duration of beats across the electrode array. For each electrode, the maximum spike amplitude and its corresponding peak timing were calculated to generate heat maps of field potential amplitude and activation timing. […]

NaV = settings: ref Yao and Tseng 1997; cited from earlier work
hiPSC-CMs [6] = test: Conventional MEA recording (16-electrode Axion Maestro), acute exposure; assay type: cell-based, human; settings: acute
Procedure: To enable comparison with the UHD-CMOS-MEA recordings, conventional extracellular field potential recordings were performed using 16-electrode MEA plates on a commercially available MEA system (Axion Maestro, Axion Biosystems), in accordance with the general principles of the CiPA initiative. hiPSC-CMs were cultured and maintained on the MEA plates under spontaneous beating conditions at 37 °C. Recordings were conducted after 10 to 14 DIV, and data acquisition and beat detection were performed using the built-in algorithms of the AxIS software (Axion Biosystems), without the use of external pacing. […] Each compound was applied under acute exposure conditions, and field potential recordings were obtained for 30 min following drug administration.
To evaluate the measurement capabilities of a conventional MEA system, the same set of 7 compounds was tested using the 16-electrode Axion Maestro platform.

CaV = settings: ref Yao and Tseng 1997; cited from earlier work
mouse cardiomyocytes = system: mouse cardiomyocytes; design: method as in Lin et al. 2024; settings: ref Lin et al. 2024; cited from earlier work
monolayer hiPSC-CMs = settings: ref Maddah et al. 2020; cited from earlier work
hiPSC-CMs [7] = test: Conventional MEA, chronic exposure; assay type: cell-based, human; settings: 0.1 μM
rat cardiomyocytes = settings: ref Sag et al. 2011, Ikeda et al. 2019; cited from earlier work
[8] = system: Engineered heart tissues derived from human iPSCs; design: method as in Arefin et al. 2023; settings: ref Arefin et al. 2023, cited from earlier work
[9] = system: human iPSC-derived cardiomyocytes; test: PCA and MANOVA of beat parameters after chronic exposure; assay type: cell-based; settings: 0.1 µM, relative to all DMSO time points
Procedure: (§2) For mechanism-of-action classification and the cardiotoxicity assessment of doxorubicin, a one-way multivariate analysis of variance (MANOVA) was employed, using principal component (PC)1 and PC2 scores as dependent variables to evaluate significant differences between drug mechanism groups. Statistical significance was determined at P < 0.05.
PCA was conducted to integrate multiple parameter changes into a comprehensive index of cardiotoxicity. The PCA included 6 selected parameters: IBI, Amplitude, Amplitude STV, Area, Velocity, and Velocity STV (Table 7). The first 2 PCs accounted for a cumulative contribution of 69.4%. […] For statistical analysis of cardiotoxicity across time points, PCA plots were categorized into 15 groups based on concentration and exposure duration. MANOVA was performed to compare each group against the DMSO 0.5 h reference (Table 8). No significant differences were detected among DMSO time points.

[10] = system: human iPSC-derived cardiomyocytes; test: FPI with UHD-CMOS-MEA, chronic exposure up to 96 h; assay type: cell-based
Procedure: as §1
Spikes from hiPSC-derived cardiomyocytes were initially detected at each electrode using a voltage threshold of ±100 µV via BinViewer software (SCREEN Holdings Co., Ltd, Japan). The resulting spike data were then processed using a custom MATLAB (MathWorks, Natick, MA) script to perform beat detection. Firing count histograms were generated using a bin size of 0.5 ms, and peak detection within these histograms identified the timing and propagation duration of beats across the electrode array. For each electrode, the maximum spike amplitude and its corresponding peak timing were calculated to generate heat maps of field potential amplitude and activation timing.
as §2
To validate the chronic cardiotoxicity assessment using CMOS-MEA measurements, FPI was performed following long-term exposure to doxorubicin.

[11] = acute, statistically significant change vs before
[12] = 0.1 μM, prolonged exposure (48 h)

IBI (interbeat interval) [5, 11]: increased and ↑ | IBI STV [5, 11]: significantly elevated and ↑ | BR (beat rate) ([5]; acute, statistically significant change vs before, arrows = direction, – = none): decreased and ↓ | FPI (concentration at which changes were detected) ([5]; changed parameters in brackets in each cell): 1 (BR, IBI, IBI STV) μM | IBI (hiPSC-CMs [6]): prolongation | beat frequency (hiPSC-CMs [6]): consistent reductions | field potential (spike) amplitude (hiPSC-CMs [6]): decreasing trend | propagation area (hiPSC-CMs [6]): statistically significant reduction
SMILES: CN1CCN(CCCCN2C(=O)CN(/N=C/c3ccc(-c4ccc(Cl)cc4)o3)C2=O)CC1 [Azimilide]
MEA assay (cardiomyocytes [1]): 0.129 ([Nozaki et al. 2017]) (FPDc10) µM | HCA assay (cardiomyocytes [2]): 1.0 ([Lu et al. 2019]) (CTD90 ↑) µM | IC50 (hERG): 5.2 µM | IC50 (IKs): 0.7 µM | Cmax Free [3]: 0.07 ([Lee et al. 2025]) μM | FPI PCA (concentration at which changes were detected) [4]: 1 µM | IC50 (NaV): 19 µM | magnitude of change in propagation area (hiPSC-CMs [6]): less than 5% | IC50 (CaV): 17.8 µM

exposure time at which a reduction in spike amplitude began to be detected (hiPSC-CMs [7]): 48 h | beat area ([10]; 0.03 µM, after 24 h): significant decreases | peak potential ([10]; 0.03 µM, after 24 h): significant decreases | beat rate ([10]; 0.03 µM, chronic exposure): did not significantly alter | changes in conventional parameters such as beat rate and IBI ([10]; 0.1 µM): evident only after 72 h | beat area ([10]; 0.1 µM, beginning at 48 h): reductions | peak potential ([10]; 0.1 µM, beginning at 48 h): reductions | temporal variability metrics (CV and STV) [10, 12]: increase | STV of peak potential ([10]; 0.1 µM, within 0.5 h): decreased
SMILES: COc1cccc2c1C(=O)c1c(O)c3c(c(O)c1C2=O)C[C@@](O)(C(=O)CO)C[C@@H]3O[C@H]1C[C@H](N)[C@H](O)[C@H](C)O1 [Doxorubicin]
concentration giving impaired Ca^2+ handling and reduced contractility (mouse cardiomyocytes): 1000 nM | concentration at which structural changes were detected (monolayer hiPSC-CMs): exceeding 0.3 μM | concentrations giving Ca^2+ handling abnormalities, apoptosis and contractile dysfunction (rat cardiomyocytes): only at micromolar concentrations | effect on contractile force ([8]; 125 or 500 nM): no observable effects | concentration giving reduced contractile force ([8]; after 48 h of exposure): 1000 nM | MANOVA of PCA groups vs DMSO [9]: significant differences were observed after 24 h | exposure time at which a decline in conduction velocity was detected ([10]; 0.1 μM, CMOS-MEA): 24 h | conduction velocity [10, 12]: decrease | concentration at which cardiotoxicity was detected ([10]; within 24 h, UHD-CMOS-MEA): 30 nM
